From US8575112B2, “Small peptide modulators of potassium channel trafficking” (University of Houston System, priority 2009, dated 2013)

Key:
Format in all cases: cell-based
Slo1QEERL = experiment: Cell-surface biotinylation assay, HEK293T cells expressing Myc-Slo1QEERL, after peptide delivery; details: HEK293T cells expressing Myc-tagged Slo1QEERL by itself; 1 mg peptide delivered with PULSin; compared to R-PE control
Experimental: (§1) HEK293T (human embryonic kidney) cells were grown in Dulbecco's modified Eagle's medium (Invitrogen) containing heat-inactivated 10% fetal bovine serum (FBS) and penicillin-streptomycin (Invitrogen) at 37° C. in a 5% CO2 incubator. Cells were transiently transfected for 24 to 48 hours using Lipofectamine 2000 (Invitrogen) in the serum-reduced medium OPTI-MEM, Invitrogen) following the manufacturer's instructions. The immortalized and undifferentiated mouse podocyte cell line was grown in RPMI1640 with 10% FBS supplied with 10 U/mL interferon-g (INF-γ) at 33° C. in a 5% CO2 incubator. Podocytes' differentiation was induced by removing INF-γ and switching to 37° C. in a 5% CO2 incubator for 14 days.
(§2) Cell-surface biotinylation was carried out by labeling cells with 1 mg/mL EZ-Link Sulfo-NHS-Biotin reagents (Pierce) in PBS (137 mM NaCl, 10 mM Phosphate, 2.7 mM KCl, pH 7.4) at 4 C with gentle shaking for 1.5 hours, which was followed by incubating the labeled cells in the cold PBS containing 100 mM glycine for additional 20 minutes at 4° C. to stop the reaction. […]
(§3) All samples were loaded and separated on 10% SDS-PAGE. […] Slo1 proteins were detected by primary antibodies, including mouse anti-Myc, mouse anti-HA, rabbit anti-VEDEC, rabbit anti-QEERL, and rabbit anti-Slo1 (APC107, Alomone labs) antibodies, as indicated. […]

Slo1VEDEC = experiment: Cell-surface biotinylation assay, HEK293T cells expressing Myc-Slo1VEDEC, after peptide delivery; details: HEK293T cells expressing Myc-tagged Slo1VEDEC, 1 mg peptide delivered with PULSin, compared to R-PE control
Experimental: as §1, §2, §3

[1] = system: endogenous Ca2+-activated K+ channels (BKCa) in podocytes; experiment: Whole-cell recordings from differentiated mouse podocytes after peptide delivery
Experimental: FIG. 7A depicts whole cell recording analyses are carried out in differentiated mouse podocytes treated with either R-PE (control) or IREVEDEC (SEQ ID NO: 9) peptides. The recording electrode contained free Ca^2+ of 5 μM and currents are evoked by a series of depolarizing steps from a holding potential of −60 mV. Representative whole-cell current traces are shown above bar graphs Left: R-PE control (Ctrl); Right: IREVEDEC (SEQ ID NO: 9) peptides. […] Asterisk indicates p<0.05.
as §1
Whole cell recordings were performed in HEK293T transiently expressing different Slo1 constructs using standard methods. […]

[2] = system: heterologously and endogenously expressed Slo1 channels; experiment: Intracellular delivery of VEDEC-motif peptides, surface expression of Slo1 channels (summary statement); details: intracellular delivery of peptide

**Q.** “IREVEDEC (Octopetide modulator of Calcium activated Potassium channels) [NH2-IREVEDEC-COOH, octopeptide containing the VEDEC motif, synthesized by Peptide 2.0]” was tested. Which “surface expression of Slo1QEERL” value (Slo1QEERL) did it give?
**A.** no effect

**Q.** And the “total expression of Slo1QEERL” value (Slo1QEERL)?
**A.** no effect

**Q.** And the “total expression of Slo1VEDEC” value (Slo1VEDEC)?
**A.** no effect

**Q.** What about the “surface expression of Slo1VEDEC” value (Slo1VEDEC; densitometry of immunoblots) of the same sequence?
**A.** increases

**Q.** What about the “current through Ca2+-activated K+ channels (current density at +60 mV)” value ([1]; differentiated mouse podocytes, 3 mg octopeptide with PULSin, electrode free Ca2+ 5 μM, vs R-PE control, n=33 cells, p<0.05) of the same sequence?
**A.** large increase

**Q.** What about the “activation or deactivation kinetics of macroscopic currents” value ([1]; mouse podocytes, whole-cell recording, data not shown) of the same sequence?
**A.** does not alter

**Q.** And the “surface expression of heterologously and endogenously expressed Slo1 (BKCa) channels” value [2]?
**A.** increase
